In ChEMBL document CHEMBL1159232, “Bipolal: anti-microalgal compound isolated as a candidate for marine antifouling produced by Bipolaris sp. F5206” (1995):
Converted amounts (≈) assume the structure as drawn.

System: Trichophyton mentagrophytes
Experiment: Antimicrobial activity against Trichophyton mentagrophytes by microbroth dilution method
Assay type: functional

C=C(C=O)[C@]1(O)C[C@@]2(C)C(=CC1=O)C=C[C@H](OC(=O)/C=C/C=C/[C@@H](C)CC)[C@@H]2C gave an MIC of 1.58 µg/mL (≈ 3.96 µM).
